Tests used:
Botrytis cinerea = assay: Test Example B: Gray mold on tomato; settings: Gray mold on tomato; control value class
Phytophthora infestans = assay: whole plant or invertebrate; assay type: in vivo; settings: Late blight on tomato; control value class
[1] = system: Colletotrichum orbiculare; assay: Test Example H: Anthracnose on cucumber; settings: Anthracnose on cucumber; 250 ppm spray, 6 to 10 days after inoculation
[2] = system: Blumeria graminis f. sp. hordei; assay: Test Example D: Powdery mildew on barley; settings: Powdery mildew on barley; control value class
Alternaia brassicicola = assay: Test Example C: Alternaria sooty spot on cabbage; assay type: in vivo; settings: Alternaria sooty spot on cabbage; control value class
Source text: Seeds of a test plant (cabbage variety: Shikidori) were planted and cultivated until the cotyledons extended.
<Control Value> Control value=100{1−(n/3)}

Plasmopara viticola = assay: Test Example G: Downy mildew on vine; settings: Downy mildew on vine; 250 ppm spray, 7 to 10 days after inoculation
Magnaporthe grisea = assay: whole plant or invertebrate; assay type: in vivo; settings: Blast on rice; control value class
Puccinia recondita = assay: Test Example E: Brown rust on wheat; assay type: in vivo; settings: Brown rust on wheat; control value class

Row | Compound | Test B control value (Botrytis cinerea) | Test F control value (Phytophthora infestans) | Test H control value [1] | Test D control value [2] | Test C control value (Alternaia brassicicola) | Test G control value (Plasmopara viticola) | Test A control value (Magnaporthe grisea) | Test E control value (Puccinia recondita)
1 | CCCCC(=O)c1cc(Cl)c(=O)n(CC)c1-c1c(F)cc(F)cc1F [compound 277] | H (more than 50% control value) | L (50% or less control value) | H (more than 50% control value) | H (more than 50% control value) | H (more than 50% control value) | H (more than 50% control value) | H (more than 50% control value) | H (more than 50% control value)
2 | CCN1C(=O)CCC(C)=C1c1ccc(F)cc1Cl [compound 278] | L (50% or less control value) | H (more than 50% control value) | H (more than 50% control value) | L (50% or less control value) | L (50% or less control value) | L (50% or less control value) | L (50% or less control value) | L (50% or less control value)
3 | CCn1c(-c2ccc(F)cc2Cl)c(C)ccc1=O [compound 279] | L (50% or less control value) | L (50% or less control value) | L (50% or less control value) | H (more than 50% control value) | L (50% or less control value) | L (50% or less control value) | L (50% or less control value) | L (50% or less control value)
4 | CCn1c(-c2ccc(F)cc2Cl)c(C)cc(Cl)c1=O [compound 280] | H (more than 50% control value) | L (50% or less control value) | H (more than 50% control value) | H (more than 50% control value) | L (50% or less control value) | L (50% or less control value) | L (50% or less control value) | H (more than 50% control value)
5 | CCn1c(-c2ccc(F)cc2Cl)c(C)cc(Br)c1=O [compound 281] | H (more than 50% control value) | L (50% or less control value) | H (more than 50% control value) | H (more than 50% control value) | L (50% or less control value) | L (50% or less control value) | L (50% or less control value) | H (more than 50% control value)
6 | CCCCCCC1=C(c2ccc(F)cc2Cl)N(CC)C(=O)CC1 [compound 282] | L (50% or less control value) | L (50% or less control value) | L (50% or less control value) | H (more than 50% control value) | L (50% or less control value) | L (50% or less control value) | L (50% or less control value) | L (50% or less control value)
7 | C#CC(O)c1cc(Cl)c(=O)n(CC)c1-c1c(F)cc(F)cc1F (centres unmarked) [compound 283] | H (more than 50% control value) | L (50% or less control value) | H (more than 50% control value) | L (50% or less control value) | H (more than 50% control value) | L (50% or less control value) | L (50% or less control value) | H (more than 50% control value)

Source: patent publication US11147272B2, “Pyridone compounds and agricultural and horticultural fungicides comprising the same as active ingredients” (MITSUI CHEMICALS AGRO, INC., priority 2017, dated 2021)
